Data: patent US20120202690A1, “HERBICIDAL COMPOUNDS” (SYNGENTA LIMITED, priority 2009, published 2012)

What was measured:
Format in all cases: in vivo
[1] = system: Setaria faberi (SETFA); experiment: Post-emergence biological efficacy, glasshouse, 500 or 1000 g/ha, evaluated after 13 days (100=total damage to plant; 0=no damage to plant); conditions: Setaria faberi, 312 h, read-out: Percentage damage caused to weed species, post-emergence, SETFA; for pest or weed control at 1000 g/ha: rate 1,000 g/ha
In short: (§1)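 Sow seeds in standard potting soil. Treat after emergence. Keep treated plants in the glasshouse at 24° C. by day and 16° C. by night, with a 14-hour photoperiod, 65% humidity and two waterings daily.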

[2] = system: Alopecurus myosuroides (ALOMY); experiment: as above; conditions: Alopecurus myosuroides, 312 h, read-out: Percentage damage caused to weed species, post-emergence, ALOMY; for pest or weed control at 1000 g/ha: rate 1,000 g/ha
In short: as §1

[3] = system: Echinochloa crusgaffi (ECHCG); experiment: as above; conditions: Echinochloa, 312 h, read-out: Percentage damage caused to weed species, post-emergence, ECHCG; for pest or weed control at 1000 g/ha: rate 1,000 g/ha
In short: as §1

[4] = system: Amaranthus retroflexus (AMARE); experiment: as above; conditions: Amaranthus retroflexus, 312 h, read-out: Percentage damage caused to weed species, post-emergence, AMARE; for pest or weed control at 1000 g/ha: rate 1,000 g/ha
In short: as §1

[5] = system: Solanum nigrum (SOLNI); experiment: as above; conditions: Solanum nigrum, 312 h, read-out: Percentage damage caused to weed species, post-emergence, SOLNI; for pest or weed control at 1000 g/ha: rate 1,000 g/ha
In short: as §1

[6] = system: Ipomoea hederaceae (IPOHE); experiment: as above; conditions: Ipomoea, 312 h, read-out: Percentage damage caused to weed species, post-emergence, IPOHE; for pest or weed control at 1000 g/ha: rate 1,000 g/ha
In short: as §1

[7] = system: Setaria faberi (SETFA); experiment: Pre-emergence biological efficacy, glasshouse, 1000 g/ha, evaluated after 13 days (100=total damage to plant; 0=no damage to plant); conditions: Setaria faberi, 312 h, read-out: Percentage damage caused to weed species, pre-emergence, SETFA; for pest or weed control at 1000 g/ha: rate 1,000 g/ha
In short: (§2)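 Pot-sown in standard soil; glasshouse 24/16° C. (day/night), 14 h light, 65% humidity; watered twice daily.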

[8] = system: Alopecurus myosuroides (ALOMY); experiment: as above; conditions: Alopecurus myosuroides, 312 h, read-out: Percentage damage caused to weed species, pre-emergence, ALOMY; for pest or weed control at 1000 g/ha: rate 1,000 g/ha
In short: as §2

[9] = system: Amaranthus retroflexus (AMARE); experiment: as above; conditions: Amaranthus retroflexus, 312 h, read-out: Percentage damage caused to weed species, pre-emergence, AMARE; for pest or weed control at 1000 g/ha: rate 1,000 g/ha
In short: as §2

[10] = system: Echinochloa crus-galli (ECHCG); experiment: as above; conditions: Echinochloa crus-galli, 312 h, read-out: Percentage damage caused to weed species, pre-emergence, ECHCG; for pest or weed control at 1000 g/ha: rate 1,000 g/ha
In short: as §2

[11] = system: Solanum nigrum (SOLNI); experiment: as above; conditions: Solanum nigrum, 312 h, read-out: Percentage damage caused to weed species, pre-emergence, SOLNI; for pest or weed control at 1000 g/ha: rate 1,000 g/ha
In short: as §2

[12] = system: Ipomoea hederaceae (IPOHE); experiment: as above; conditions: Ipomoea, 312 h, read-out: Percentage damage caused to weed species, pre-emergence, IPOHE; for pest or weed control at 1000 g/ha: rate 1,000 g/ha
In short: as §2

SMILES | pest or weed control at 1000 g/ha [1] [%] | pest or weed control at 1000 g/ha [2] [%] | pest or weed control at 1000 g/ha [3] [%] | pest or weed control at 1000 g/ha [4] [%] | pest or weed control at 1000 g/ha [5] [%] | pest or weed control at 1000 g/ha [6] [%] | pest or weed control at 1000 g/ha [7] [%] | pest or weed control at 1000 g/ha [8] [%] | pest or weed control at 1000 g/ha [9] [%] | pest or weed control at 1000 g/ha [10] [%] | pest or weed control at 1000 g/ha [11] [%] | pest or weed control at 1000 g/ha [12] [%] | further results
Cc1cc2c(C(=O)O)nc(-c3ccc(Cl)c(F)c3)nc2n1CC1CC1 [Compound 5-21, 4-Carboxy-2-(4-chloro-3-fluorophenyl)-7-cyclopropylmethyl-6-methyl-7H-pyrrolo[2,3-d]pyrimidine] | 10 | 10 | 10 | 70 | 50 | 30 | 10 | 10 | 100 | 0 | 40 | 30 | 
COc1c(Cl)ccc(-c2nc(C(=O)O)c3cc(C)n(CC4CC4)c3n2)c1F [Compound 5-65, 4-Carboxy-2-(4-chloro-2-fluoro-3-methoxyphenyl)-7-cyclopropymethyl-6-methyl-7H-pyrrolo[2,3-d]pyrimidine] | 20 | 0 | 0 | 10 | 20 | 10 | 0 | 0 | 0 | 0 | 0 | 0 | 
COC(=O)c1nc(-c2ccc(Cl)c(OC)c2F)nc2c1cc(C)n2CC1CC1 [Compound 5-66, 2-(4-Chloro-2-fluoro-3-methoxyphenyl)-7-cyclopropylmethyl-4-methoxycarbonyl-6-methyl-7H-pyrrolo[2,3-d]pyrimidine] | 20 | 10 | 10 | 0 | 20 | 0 | 0 | 0 | 0 | 0 | 0 | 0 | 
O=C(O)c1nc(-c2ccc(Cl)c(F)c2)nc2c1ccn2Cc1ccccc1 [Compound 6-17, 4-Carboxy-2-(4-chloro-3-fluorophenyl)-7-phenylmethyl-7H-pyrrolo[2,3-d]pyrimidine] | 0 | 0 | 0 | 20 | 40 | 0 | 0 | 0 | 0 | 0 | 0 | 0 | 
COC(=O)c1nc(-c2ccc(Cl)c(F)c2)nc2c1ccn2Cc1ccccc1 [Compound 6-18, 2-(4-Chloro-3-fluorophenyl)-4-methoxycarbonyl-7-phenylmethyl-7H-pyrrolo[2,3-d]pyrimidine] | 0 | 0 | 0 | 0 | 40 | 20 | 0 | 0 | 0 | 0 | 0 | 0 | 
Cc1cc2c(C(=O)O)nc(-c3ccc(Cl)c(F)c3)nc2n1Cc1ccccc1 [Compound 6-21, 4-Carboxy-2-(4-chloro-3-fluorophenyl)-6-methyl-7-phenylmethyl-7H-pyrrolo[2,3-d]pyrimidine] |  |  |  |  |  |  |  |  |  |  |  |  | pest or weed control at 250 g/ha ([1]; rate 250 g/ha): 0%; pest or weed control at 250 g/ha ([2]; rate 250 g/ha): 10%; pest or weed control at 250 g/ha ([3]; rate 250 g/ha): 0%; pest or weed control at 250 g/ha ([4]; rate 250 g/ha): 0%; pest or weed control at 250 g/ha ([5]; rate 250 g/ha): 10%; pest or weed control at 250 g/ha ([6]; rate 250 g/ha): 10%; pest or weed control at 250 g/ha ([7]; rate 250 g/ha): 0%; pest or weed control at 250 g/ha ([8]; rate 250 g/ha): 0%; pest or weed control at 250 g/ha ([9]; rate 250 g/ha): 0%; pest or weed control at 250 g/ha ([10]; rate 250 g/ha): 0%; pest or weed control at 250 g/ha ([11]; rate 250 g/ha): 0%; pest or weed control at 250 g/ha ([12]; rate 250 g/ha): 0%
COc1c(Cl)ccc(-c2nc(C(=O)O)c3c(C)cn(Cc4ccccc4)c3n2)c1F [Compound 6-63, 7-Benzyl-4-carboxy-2-(4-chloro-2-fluoro-3-methoxyphenyl)-5-methyl-7H-pyrrolo[2,3-d]pyrimidine] | 50 | 10 | 40 | 80 | 70 | 60 | 0 | 0 | 0 | 0 | 0 | 0 | 
COC(=O)c1nc(-c2ccc(Cl)c(OC)c2F)nc2c1c(C)cn2Cc1ccccc1 [Compound 6-64, 2-(4-Chloro-2-fluoro-3-methoxyphenyl)-4-methoxycarbonyl-5-methyl-7-phenylmethyl-7H-pyrrolo[2,3-d]pyrimidine] | 0 | 0 | 0 | 20 | 70 | 50 | 0 | 0 | 50 | 0 | 50 | 30 | 
COc1c(Cl)ccc(-c2nc(C(=O)O)c3cc(C)n(Cc4ccccc4)c3n2)c1F [Compound 6-65, 4-Carboxy-2-(4-chloro-2-fluoro-3-methoxyphenyl)-6-methyl-7-phenylmethyl-7H-pyrrolo[2,3-d]pyrimidine] | 0 | 0 | 0 | 20 | 80 | 40 | 0 | 0 | 0 | 0 | 0 | 0 | 
COC(=O)c1nc(-c2ccc(Cl)c(OC)c2F)nc2c1cc(C)n2Cc1ccccc1 [Compound 6-66, 2-(4-Chloro-2-fluoro-3-methoxyphenyl)-4-methoxycarbonyl-6-methyl-7-phenylmethyl-7H-pyrrolo[2,3-d]pyrimidine] | 10 | 0 | 0 | 40 | 80 | 40 | 0 | 0 | 10 | 0 | 20 | 0 | 
